Experimental findings from patent US11814367B2, “Inhibitors of glycogen synthase 1 (GYS1) and methods of use thereof” (Maze Therapeutics, Inc., priority 2021, dated 2023) are described below.

The target in test [1] is hGYS2 enzyme (recombinant hGYS2/GN1 protein) (Homo sapiens (Human), UniProt P54840). Put plainly: GYS2 coupled enzyme assay (PK/LDH). It counts as biochemical. The settings on record: geometric mean of at least 2 assay runs on separate days, read-out: Avg_IC50. The method, boiled down:
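Recombinant hGYS2/GN1 (200 nM) with 2 mM UDP-glucose, 0.2% rabbit liver glycogen, 2 mM glucose-6-phosphate; UDP coupled via PK/LDH (2 mM PEP, 0.6 mM NADH). Buffer 50 mM Tris pH 7.5, 2 mM MgCl2, 100 mM KCl, 2.5% DMSO. A340 slope over 10 min; IC50 from Hill fit of duplicates.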

Test [2] has as its system hGYS1 enzyme / glycogen synthesis in HeLa cells. The experiment in a line: GYS1 cell based assay (glycogen synthesis, Glucose-glo). Also noted: species or system human. The settings on record: Homo sapiens, HeLa, 24 h, 24 h incubation, 20 mM glucose, geometric mean of at least 2 runs. In outline:
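HeLa cells starved 24 h in medium containing only 1× Glutamax were plated onto compound in medium with 20 mM glucose (1% DMSO final) for 24 h, 37 °C, 5% CO2. Acid lysates were Tris-quenched, glucoamylase-digested (pH 5.3, 1 h, 37 °C) and read by Glucose-glo luminescence. IC50 came from Hill fits, as geometric mean of ≥2 runs.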

Test [3] deals with hGYS1 enzyme (recombinant hGYS1/GN1 protein) (Homo sapiens (Human), UniProt P13807). The experiment in a line: GYS1 coupled enzyme assay (PK/LDH). Type of test: biochemical. The settings on record: hGYS1/GN1 50 nM, UDP-Glucose 0.8 mM, G6P 1 mM; geometric mean of at least 2 runs.
Chain of hGYS1 enzyme (recombinant hGYS1/GN1 protein) (P13807 whole entry): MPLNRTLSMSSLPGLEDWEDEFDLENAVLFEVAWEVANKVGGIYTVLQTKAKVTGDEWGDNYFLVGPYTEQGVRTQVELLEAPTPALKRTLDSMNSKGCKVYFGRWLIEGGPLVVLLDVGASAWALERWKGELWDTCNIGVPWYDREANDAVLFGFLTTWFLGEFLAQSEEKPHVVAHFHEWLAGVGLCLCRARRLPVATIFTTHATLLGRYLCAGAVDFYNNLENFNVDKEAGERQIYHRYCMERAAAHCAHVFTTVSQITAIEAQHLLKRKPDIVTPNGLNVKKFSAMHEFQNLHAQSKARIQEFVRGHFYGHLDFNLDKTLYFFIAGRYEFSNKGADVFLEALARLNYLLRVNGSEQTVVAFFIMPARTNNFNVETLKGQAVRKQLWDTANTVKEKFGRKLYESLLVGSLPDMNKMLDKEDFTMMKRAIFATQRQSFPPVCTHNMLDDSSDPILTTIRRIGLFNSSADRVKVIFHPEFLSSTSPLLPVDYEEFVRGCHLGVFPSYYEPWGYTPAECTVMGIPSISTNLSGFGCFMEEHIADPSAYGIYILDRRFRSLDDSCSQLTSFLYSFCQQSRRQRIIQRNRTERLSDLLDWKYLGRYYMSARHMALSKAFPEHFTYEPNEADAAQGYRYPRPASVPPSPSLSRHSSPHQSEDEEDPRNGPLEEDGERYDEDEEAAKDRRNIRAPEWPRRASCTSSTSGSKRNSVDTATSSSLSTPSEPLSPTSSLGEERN
Chain of hGYS1 enzyme (recombinant hGYS1/GN1 protein) (P46976 whole entry partner): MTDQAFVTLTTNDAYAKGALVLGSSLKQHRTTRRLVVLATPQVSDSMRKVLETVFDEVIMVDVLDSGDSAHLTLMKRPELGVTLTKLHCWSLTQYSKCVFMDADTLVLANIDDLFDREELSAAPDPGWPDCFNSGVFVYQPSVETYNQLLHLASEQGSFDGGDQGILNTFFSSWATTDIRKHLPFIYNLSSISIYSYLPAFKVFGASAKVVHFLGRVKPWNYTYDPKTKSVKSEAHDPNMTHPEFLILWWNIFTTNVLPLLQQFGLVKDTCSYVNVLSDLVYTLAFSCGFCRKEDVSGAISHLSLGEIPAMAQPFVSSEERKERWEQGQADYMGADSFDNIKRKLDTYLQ

Chain of hGYS2 enzyme (recombinant hGYS2/GN1 protein) (P54840 whole entry): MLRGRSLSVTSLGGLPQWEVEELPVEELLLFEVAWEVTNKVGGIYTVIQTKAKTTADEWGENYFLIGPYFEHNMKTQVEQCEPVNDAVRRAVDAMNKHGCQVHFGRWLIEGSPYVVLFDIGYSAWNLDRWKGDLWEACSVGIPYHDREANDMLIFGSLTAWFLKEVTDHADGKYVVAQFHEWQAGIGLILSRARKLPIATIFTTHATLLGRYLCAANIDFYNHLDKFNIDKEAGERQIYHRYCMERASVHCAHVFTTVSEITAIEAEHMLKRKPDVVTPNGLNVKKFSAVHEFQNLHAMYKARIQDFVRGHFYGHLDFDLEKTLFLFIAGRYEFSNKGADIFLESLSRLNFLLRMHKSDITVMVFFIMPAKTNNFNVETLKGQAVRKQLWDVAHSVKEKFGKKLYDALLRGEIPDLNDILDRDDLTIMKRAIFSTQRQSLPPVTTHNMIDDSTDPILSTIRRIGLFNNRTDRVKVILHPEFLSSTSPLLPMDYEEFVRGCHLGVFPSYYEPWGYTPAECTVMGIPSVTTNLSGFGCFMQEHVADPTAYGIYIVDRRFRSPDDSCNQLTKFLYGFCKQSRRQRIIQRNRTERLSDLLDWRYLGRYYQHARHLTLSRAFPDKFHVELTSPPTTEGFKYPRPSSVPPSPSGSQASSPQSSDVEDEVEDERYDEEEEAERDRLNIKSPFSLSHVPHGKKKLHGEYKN
Chain of hGYS2 enzyme (recombinant hGYS2/GN1 protein) (P46976 whole entry partner): as the sequence (P46976 whole entry partner) above

For the compound `CC(C)c1ccc([C@@H](NC(=O)[C@@H]2C[C@@H](F)CN2C(=O)Cn2ncc(N(C)C)n2)c2ccccc2)cc1F` [Compound 378, (2S,4R)-1-{2-[4-(dimethylamino)-2H-1,2,3-triazol-2-yl]acetyl}-4-fluoro-N-[(S)-[3-fluoro-4-(propan-2-yl)phenyl](phenyl)methyl] pyrrolidine-2-carboxamide], the IC50 was more than 100000 nM in test [1], 170 nM in test [2] and 6 nM in test [3].

As to `CC(C)c1ccc([C@@H](NC(=O)[C@@H]2C[C@@H](F)CN2C(=O)Cc2cccn3c(=O)[nH]nc23)c2ccccc2)cc1F` [Compound 379, (2S,4R)-4-fluoro-N-[(S)-[3-fluoro-4-(propan-2-yl)phenyl](phenyl)methyl]-1-(2-{3-oxo-2H,3H-[1,2,4]triazolo[4,3-a]pyridin-8-yl}acetyl)pyrrolidine-2-carboxamide], the IC50 is more than 100000 nM in test [1], 190 nM in test [2] and 8 nM in test [3].

Regarding `CC(C)c1ccc([C@@H](NC(=O)[C@@H]2C[C@@H](F)CN2C(=O)Cn2ccnc2)c2ccccc2)cc1F` [Compound 380, (2S,4R)-4-fluoro-N-[(S)-[3-fluoro-4-(propan-2-yl)phenyl](phenyl)methyl]-1-[2-(1H-imidazol-1-yl)acetyl]pyrrolidine-2-carboxamide], the values for the IC50 in test [1], in test [2] and in test [3] were more than 100000 nM, 450 nM and 47 nM, respectively.

In the case of `CC(C)c1ccc([C@@H](NC(=O)[C@@H]2C[C@@H](F)CN2C(=O)[C@@H]2CNC(=O)O2)c2ccccc2)cc1F` [Compound 381, (2S,4R)-4-fluoro-N-[(S)-[3-fluoro-4-(propan-2-yl)phenyl](phenyl)methyl]-1-[(5S)-2-oxo-1,3-oxazolidine-5-carbonyl]pyrrolidine-2-carboxamide], the values for the IC50 in test [1], in test [2] and in test [3] were more than 100000 nM, 440 nM and 58 nM, respectively.

As for `CC(C)c1ccc([C@@H](NC(=O)[C@@H]2C[C@@H](F)CN2C(=O)[C@H]2CNC(=O)O2)c2ccccc2)cc1F` [Compound 382, (2S,4R)-4-fluoro-N-[(S)-[3-fluoro-4-(propan-2-yl)phenyl](phenyl)methyl]-1-[(5R)-2-oxo-1,3-oxazolidine-5-carbonyl]pyrrolidine-2-carboxamide], the IC50 is more than 100000 nM in test [1], 520 nM in test [2] and 34 nM in test [3].

Regarding `CC(C)c1ccc([C@@H](NC(=O)[C@@H]2C[C@@H](F)CN2C(=O)Cc2nnc(C(F)F)o2)c2ccccc2)cc1F` [Compound 383, (2S,4R)-1-{2-[5-(difluoromethyl)-1,3,4-oxadiazol-2-yl]acetyl}-4-fluoro-N-[(S)-[3-fluoro-4-(propan-2-yl)phenyl](phenyl)methyl] pyrrolidine-2-carboxamide], the IC50 in test [1] is more than 100000 nM; in test [2], 410 nM; in test [3], 27 nM.

In the case of `CC(C)c1ccc([C@@H](NC(=O)[C@@H]2C[C@@H](F)CN2C(=O)Cn2cnnc2)c2ccccc2)cc1F` [Compound 384, (2S,4R)-4-fluoro-N-[(S)-[3-fluoro-4-(propan-2-yl)phenyl](phenyl)methyl]-1-[2-(4H-1,2,4-triazol-4-yl)acetyl]pyrrolidine-2-carboxamide], the IC50 in test [1] was more than 100000 nM; in test [2], 700 nM; in test [3], 33 nM.

As to `CC(C)c1ccc([C@@H](NC(=O)[C@@H]2C[C@@H](F)CN2C(=O)Cc2cnn[nH]2)c2ccccc2)nc1F` [Compound 385, (2S,4R)-1-(2-(1H-1,2,3-triazol-5-yl)acetyl)-4-fluoro-N—((S)-(6-fluoro-5-isopropylpyridin-2-yl)(phenyl)methyl)pyrrolidine-2-carboxamide], the IC50 is more than 100000 nM in test [1], 390 nM in test [2] and 17 nM in test [3].

Regarding `Cc1ccc2c(CC(=O)N3C[C@H](F)C[C@H]3C(=O)N[C@@H](c3ccccc3)c3ccc(C(C)C)c(F)n3)cccc2n1` [Compound 387, (2S,4R)-4-fluoro-N-[(S)-[6-fluoro-5-(propan-2-yl)pyridin-2-yl](phenyl)methyl]-1-[2-(2-methylquinolin-5-yl)acetyl]pyrrolidine-2-carboxamide], the IC50 stood at 36200 nM in test [1], 30 nM in test [2] and 5 nM in test [3].

Turning to `CC(C)c1ccc([C@@H](NC(=O)[C@@H]2C[C@@H](F)CN2C(=O)Cn2cnc3ccccc32)c2ccccc2)nc1F` [Compound 389, (2S,4R)-1-[2-(1H-1,3-benzodiazol-1-yl)acetyl]-4-fluoro-N-[(S)-[6-fluoro-5-(propan-2-yl)pyridin-2-yl](phenyl)methyl] pyrrolidine-2-carboxamide], the IC50 in test [1] is more than 90300 nM; in test [2] it was 50 nM; in test [3] it was 4 nM.

Regarding `CC(C)c1ccc([C@@H](NC(=O)[C@@H]2C[C@@H](F)CN2C(=O)Cn2cnnc2)c2ccccc2)nc1F` [Compound 390, (2S,4R)-4-fluoro-N-[(S)-[6-fluoro-5-(propan-2-yl)pyridin-2-yl](phenyl)methyl]-1-[2-(4H-1,2,4-triazol-4-yl)acetyl] pyrrolidine-2-carboxamide], the IC50 in test [1] was more than 100000 nM; in test [2], 1030 nM; in test [3] it was 27 nM.

In the case of `CC(C)c1ccc([C@@H](NC(=O)[C@@H]2C[C@@H](F)CN2C(=O)Cc2cccn3c(=O)[nH]nc23)c2ccccc2)nc1F` [Compound 391, (2S,4R)-4-fluoro-N-[(S)-[6-fluoro-5-(propan-2-yl)pyridin-2-yl](phenyl)methyl]-1-(2-{3-oxo-2H,3H-[1,2,4]triazolo[4,3-a]pyridin-8-yl}acetyl) pyrrolidine-2-carboxamide], the IC50 in test [1] stood at 89300 nM; in test [2] it was 150 nM; in test [3] it was 6 nM.

Turning to `CC(C)c1ccc([C@@H](NC(=O)[C@@H]2C[C@@H](F)CN2C(=O)Cn2ncc(N(C)C)n2)c2ccccc2)nc1F` [Compound 392, (2S,4R)-1-{2-[4-(dimethylamino)-2H-1,2,3-triazol-2-yl]acetyl}-4-fluoro-N-[(S)-[6-fluoro-5-(propan-2-yl)pyridin-2-yl](phenyl)methyl] pyrrolidine-2-carboxamide], the IC50 is more than 100000 nM in test [1], 100 nM in test [2] and 5 nM in test [3].

Turning to `CC(C)c1ccc([C@@H](NC(=O)[C@@H]2C[C@@H](F)CN2C(=O)Cn2cc(N(C)C)nn2)c2ccccc2)nc1F` [Compound 393, (2S,4R)-1-{2-[4-(dimethylamino)-1H-1,2,3-triazol-1-yl]acetyl}-4-fluoro-N-[(S)-[6-fluoro-5-(propan-2-yl)pyridin-2-yl](phenyl)methyl] pyrrolidine-2-carboxamide], the IC50 is more than 100000 nM in test [1], 120 nM in test [2] and 8 nM in test [3].

As for `CC(C)c1ccc([C@@H](NC(=O)[C@@H]2C[C@@H](F)CN2C(=O)CNC(=O)N(C)C)c2ccccc2)nc1F` [Compound 394, (2S,4R)-1-{2-[(dimethylcarbamoyl)amino]acetyl}-4-fluoro-N-[(S)-[6-fluoro-5-(propan-2-yl)pyridin-2-yl](phenyl)methyl] pyrrolidine-2-carboxamide], the IC50 was more than 100000 nM in test [1], 150 nM in test [2] and 7 nM in test [3].

With `CNC(=O)NCC(=O)N1C[C@H](F)C[C@H]1C(=O)N[C@@H](c1ccccc1)c1ccc(C(C)C)c(F)n1` [Compound 395, (2S,4R)-4-fluoro-N-[(S)-[6-fluoro-5-(propan-2-yl)pyridin-2-yl](phenyl)methyl]-1-{2-[(methylcarbamoyl)amino]acetyl}pyrrolidine-2-carboxamide], the IC50 in test [1] was more than 100000 nM; in test [2], 240 nM; in test [3], 8 nM.

`CC(C)c1ccc([C@@H](NC(=O)[C@@H]2C[C@@H](F)CN2C(=O)CNC(N)=O)c2ccccc2)nc1F` [Compound 396, (2S,4R)-1-[2-(carbamoylamino)acetyl]-4-fluoro-N-[(S)-[6-fluoro-5-(propan-2-yl)pyridin-2-yl](phenyl)methyl] pyrrolidine-2-carboxamide]: the IC50 in test [1] was more than 100000 nM; in test [2], 330 nM; in test [3], 13 nM.

Consider `CC(C)c1ccc([C@@H](NC(=O)[C@@H]2C[C@@H](F)CN2C(=O)Cc2n[nH]c(=O)n2C)c2ccccc2)nc1F` [Compound 398, (2S,4R)-4-fluoro-N-[(S)-[6-fluoro-5-(propan-2-yl)pyridin-2-yl](phenyl)methyl]-1-[2-(4-methyl-5-oxo-4,5-dihydro-1H-1,2,4-triazol-3-yl)acetyl] pyrrolidine-2-carboxamide], for which the figures for the IC50 in test [1], in test [2] and in test [3] were more than 100000 nM, 280 nM and 9 nM, respectively.

`CC(C)c1ccc([C@@H](NC(=O)[C@@H]2C[C@@H](F)CN2C(=O)CNC(=O)N2CCC2)c2ccccc2)nc1F` [Compound 399, (2S,4R)-1-{2-[(azetidine-1-carbonyl)amino]acetyl}-4-fluoro-N-[(S)-[6-fluoro-5-(propan-2-yl)pyridin-2-yl](phenyl)methyl] pyrrolidine-2-carboxamide]: the IC50 is more than 100000 nM in test [1], 150 nM in test [2] and 8 nM in test [3].
